Test results taken from US10203331B2, “Single cell drug response measurements via live cell interferometry” (The Regents of the University of California, priority 2011, dated 2019).
“Also recorded” adds a separate entry of the source.

Experiments:
Assay type in all cases: cell-based, human
[1] = test system: XBP1 mRNA splicing (XBP1-s); test: RT-PCR for XBP1 spliced and unspliced isoforms in treated H929 cells; conditions: treated H929 population, over five hours
Method: (§1) H929 cells were seeded in 6-well culture plates at a density of 1×10^6 cells/well. Before plating cells in the LCI's observation chamber, either 1 μL of Tunicamycin (T7765; Sigma-Aldrich) in DMSO, or DMSO alone were added to the media at a concentration of 10 mg/ml, DMSO/media (1:1000 dilution). Mass measurements commenced one hour after the cells were plated in the observation chamber in order to allow the experimental system to stabilize, i.e.; culture acclimation, temperature stabilization, etc. For cell cycle analysis, cells from each time point were collected and incubated with a hypotonic DNA-staining buffer containing propidium iodide and later analyzed by flow cytometry. RNA for each time point was extracted using the Trizol reagent (Invitrogen).
(§2) CDNA was synthesized from 3 μg of total RNA with oligo(dT) primers using the Superscript III first strand cDNA synthesis kit (Invitrogen). RT-PCR for XBP1 spliced and unspliced isoforms were performed using Platinum Taq (Invitrogen) at an annealing temperature of 58° C. for 25 cycles. Quantitative RT-PCR for CHOP (DDIT3) mRNA was performed using the SYBR green real time PCR kit (Diagenode) and an Applied Biosystems (Foster City, Calif., USA) 7700 sequence detector as described (33). Samples were analyzed for 36b4 expression as a normalization control. Primer sequences are available on request.

[2] = test system: H929 cells; test: Cell cycle analysis, propidium iodide flow cytometry
Method: as §1

[3] = test system: H929 multiple myeloma cells; test: LCI longitudinal single-cell mass accumulation profiling; design: mass accumulation rate (growth) of treated cells versus DMSO-treated controls: dose or concentration left out as unconfirmed; conditions: for mass accumulation rate (growth) of treated cells versus DMSO-treated controls: Tunicamycin, data over five hours
Text: The live cell interferometer has been described in detail previously (1). Briefly, the system is an optical microscope, based on a modified Veeco NT9300 optical profiler, with a 20×0.28NA Michelson interference objective that allows for the observation of not only lateral features with typical optical resolution (1.16 μm for the 20× objective) but also height dimensions of reflective objects below the scale of one nanometer. The Michelson interferometer is composed of a beam splitter, reference mirror and compensating fluid cell to adjust for optical path differences induced by fluid surrounding the specimen. The phase shifting interferometry (PSI) (14) method was used to capture phase images of the cell bodies in situ. During measurement, a piezoelectric translator decreases the light path a small amount causing a phase shift between the test and reference beams. The system records the irradiance of the resulting interference pattern at many different phase shifts and then converts the irradiance to phase wavefront data by integrating the irradiance data using a PSI algorithm. As currently implemented, the autofocus and PSI measurement cycle takes 12 seconds. The PSI measurement itself takes 1-2 seconds, and is limited by the camera frame rate (60 fps). In this experiment, one set of 25 images, containing 400-1,000 cells, was captured every 7 minutes. Each set of 25 images contained hundreds of cells, with data from the first five images presented here, and therefore each run includes ˜80 cells. All cells within each of the selected images were measured.
The software native to the Veeco NT9300 allows automated optical thickness measurements of cells selected manually from the phase image. The optical thickness is converted to mass as described in the text, using the conversion constant, α=1.8×10^−3 m^3 kg^−1, consistent with Ross. (9) The boundary of each cell was automatically selected by an algorithm that partitions objects from the background using a threshold determined from the histogram of pixel heights. (15) Conversion of the raw phase image into optical thickness uses a series of well established ‘phase unwrapping’ routines. […] This error is easily detected as a non-physical discontinuity in optical thickness, and corrected by adding back one wavelength of optical thickness to the affected pixels. […]
H929 human multiple myeloma cells were maintained at 37° C. in 5% CO2 in RPMI 1640 growth media supplemented with 10% defined fetal bovine serum (HyClone) and antibiotics. […] Cell responses to external stimuli were measured for as long as seven hours in this configuration, and observed unperturbed cultures for up to twelve hours, although the upper limit of experiment duration has not been determined. […]

[4] = test system: CHOP (DDIT3) mRNA; test: Quantitative RT-PCR for CHOP (DDIT3) mRNA in treated H929 cells; conditions: treated H929 population, over five hours
Method: as §1, §2

For Tunicamycin, the “XBP1 alternative splicing (spliced form XBP1-s)” value [1] was “alternative splicing”, the “XBP1 alternative splicing (spliced form XBP1-s)” value ([1]; listed as TM) was “up-regulation” and the “cells in G1/G0” value ([2]; by the end of five hours of treatment) was 50%. The G2/M phase population ([2]; shift pronounced after three hours of exposure) was “rapid reduction”, the “time at which suppression of growth of the treated population appears” value ([3]; H929, treated vs untreated) was “within two hours” and the “mass accumulation rate (growth) of treated cells versus DMSO-treated controls” value [3] was “grow more slowly than do the controls; also recorded: much lower”. For the same substance, the “mass accumulation rate (growth) of treated cells versus DMSO-treated controls” value ([3]; listed as TM) was “slowing mass accumulation”, the “cell shrinkage or apoptosis” value ([3]; with induction of XBP1 mRNA splicing) was “not cell shrinkage or apoptosis” and the “CHOP transcription factor expression” value [4] was “up-regulation”.
